Source: US20250034207A1, “PEPTIDES AND PEPTIDE CONJUGATES FOR TREATING MENTAL DISORDERS” (Kyoto University, priority 2016, published 2025)
No end group written: not given here.

Tested on: ddY mice
Test: Tail suspension test in mice after oral administration
Format: in vivo
Details: for Activity Rating: rating excellent, good, moderate or low from percent reduction of control immobility, 0.3 mg/kg; for % of SEQ ID NO: 1 activity: reduction of control immobility relative to SEQ ID NO:1, 0.3 mg/kg oral, average where tested more than once; for Immobility time for peptides dosed at 0.3 mg/kg as percent of control immobility time, Example 16: Example 16 (retest)
Procedure: The tail suspension test is an experimental method used to screen potential antidepressant drugs (Can et al., 2012, J Vis Exp., 59: e3769). In the test as implemented in the Examples, a test substance is orally administered to mice (ddY mice, males, 24˜30 g) and 30 minutes later the mice are suspended by their tails for six minutes. The amount of time that a mouse is immobile (i.e. is not displaying escape behavior) during the six minutes is measured to provide an immobility time. The administration of anti-depressant drugs such as imipramine reduces immobility time. Therefore, if a reduction of immobility time is observed when testing a test substance, it can be concluded that the test substance has anti-depressant properties. Immobility is considered a despair state, and, therefore, a reduction of immobility time also indicates an increase in motivation (i.e., that the test substance has motivation-increasing properties).

Substance	Activity Rating	% of SEQ ID NO: 1 activity [%]	further results
LSSTQAQQSY (Designed peptide) [SEQ ID NO:1]	Excellent	100	Immobility time for peptides dosed at 0.3 mg/kg as percent of control immobility time, Example 1 (0.3 mg/kg oral, Example 1): 44.13% of control immobility time; Immobility time for peptides dosed at 0.3 mg/kg as percent of control immobility time, Example 3 (FIG. 3A) (0.3 mg/kg oral): 42.41% of control immobility time; Immobility time for peptides dosed at 0.3 mg/kg as percent of control immobility time, Example 3 (FIG. 3B) (0.3 mg/kg oral): 64.04% of control immobility time
AQQSY (Designed peptide) [SEQ ID NO:5]	Moderate	26.16	Immobility time for peptides dosed at 0.3 mg/kg as percent of control immobility time, Example 3 (FIG. 3B) (0.3 mg/kg oral): 86.87% of control immobility time
LSSTQ (Designed peptide) [SEQ ID NO:4]	Good	36.80	Immobility time for peptides dosed at 0.3 mg/kg as percent of control immobility time, Example 3 (FIG. 3B) (0.3 mg/kg oral): 81.53% of control immobility time
LSSTQAQQSYLQGF (Designed peptide) [SEQ ID NO:43]	Low	−19.33	Immobility time for peptides dosed at 0.3 mg/kg as percent of control immobility time, Example 15 (0.3 mg/kg oral): 109.70% of control immobility time
LSSTQAQQS (Designed peptide) [SEQ ID NO:2]	Moderate	25.28	Immobility time for peptides dosed at 0.3 mg/kg as percent of control immobility time, Example 3 (FIG. 3A) (0.3 mg/kg oral): 87.31% of control immobility time
LSSTQAQQ (Designed peptide) [SEQ ID NO:27]	Good	46.52	Immobility time for peptides dosed at 0.3 mg/kg as percent of control immobility time, Example 13 (0.3 mg/kg oral): 76.65% of control immobility time
LSSTQAQQSYW (Designed peptide) [SEQ ID NO:37]	Excellent	97.25	Immobility time for peptides dosed at 0.3 mg/kg as percent of control immobility time, Example 14 (0.3 mg/kg oral): 39.08% of control immobility time; Immobility time for peptides dosed at 0.3 mg/kg as percent of control immobility time, Example 16 (0.3 mg/kg oral): 58.54% of control immobility time
LSSTQAQQSY-NH2 [SEQ ID NO:36, C-terminal amidated peptide conjugate]	Excellent	89.12	Immobility time for peptides dosed at 0.3 mg/kg as percent of control immobility time, Example 6 (0.3 mg/kg oral): 55.27% of control immobility time
FFLSSTQAQQSYLQ (Designed peptide) [SEQ ID NO:44]	Good	33.91	Immobility time for peptides dosed at 0.3 mg/kg as percent of control immobility time, Example 15 (0.3 mg/kg oral): 82.98% of control immobility time; Immobility time compared to control (0.3 mg/kg oral, Example 15 (FIG. 11)): decreased
LSSTQAQQSW (Designed peptide) [SEQ ID NO:6]	Excellent	122.71	Immobility time for peptides dosed at 0.3 mg/kg as percent of control immobility time, Example 6 (0.3 mg/kg oral): 38.41% of control immobility time
STQAQQSY (Designed peptide) [SEQ ID NO:29]	Good	50.93	Immobility time for peptides dosed at 0.3 mg/kg as percent of control immobility time, Example 13 (0.3 mg/kg oral): 74.44% of control immobility time
WLSSTQ (Designed peptide) [SEQ ID NO:40]	Good	56.36	Immobility time for peptides dosed at 0.3 mg/kg as percent of control immobility time, Example 14 (0.3 mg/kg oral): 55.34% of control immobility time; Immobility time for peptides dosed at 0.3 mg/kg as percent of control immobility time, Example 16 (0.3 mg/kg oral): 88.09% of control immobility time
ESFFLSSTQAQQSY (Designed peptide) [SEQ ID NO:42]	Low	−39.13	Immobility time for peptides dosed at 0.3 mg/kg as percent of control immobility time, Example 15 (0.3 mg/kg oral): 119.64% of control immobility time
SSTQAQQSY (Designed peptide) [SEQ ID NO:3]	Excellent	64.81	Immobility time for peptides dosed at 0.3 mg/kg as percent of control immobility time, Example 3 (FIG. 3A) (0.3 mg/kg oral): 67.47% of control immobility time
AQQSYW (Designed peptide) [SEQ ID NO:41]	Low	5.32	Immobility time for peptides dosed at 0.3 mg/kg as percent of control immobility time, Example 14 (0.3 mg/kg oral): 97.33% of control immobility time
LSSTQAQQSF (Designed peptide) [SEQ ID NO:7]	Excellent	115.46	Immobility time for peptides dosed at 0.3 mg/kg as percent of control immobility time, Example 6 (0.3 mg/kg oral): 42.05% of control immobility time
WLSSTQAQQSYW (Designed peptide) [SEQ ID NO:39]	Moderate	18.05	Immobility time for peptides dosed at 0.3 mg/kg as percent of control immobility time, Example 14 (0.3 mg/kg oral): 90.94% of control immobility time
SSTQAQQS (Designed peptide) [SEQ ID NO:28]	Excellent	82.07	Immobility time for peptides dosed at 0.3 mg/kg as percent of control immobility time, Example 13 (0.3 mg/kg oral): 60.34% of control immobility time; Immobility time for peptides dosed at 0.3 mg/kg as percent of control immobility time, Example 16 (0.3 mg/kg oral): 57.29% of control immobility time
WLSSTQAQQSY (Designed peptide) [SEQ ID NO:38]	Good	55.25	Immobility time for peptides dosed at 0.3 mg/kg as percent of control immobility time, Example 14 (0.3 mg/kg oral): 72.27% of control immobility time
